# Laboratory results: article PMC5403950, “Mechanism Underlying the Reversal of Drug Resistance in P-Glycoprotein-Expressing Leukemia Cells by Pinoresinol and the Study of a Derivative” (Frontiers in Pharmacology, 2017)
# Where “and” joins values, the source holds several entries; their conditions need not be identical. Equal entries are not always repeated. Entries after “also recorded” stand apart in the source; their conditions may differ. Structures can show the parent of a compound that is named as a salt. Where two headings read alike, the source gives them in different places.
# Key:
# K562 cells [1] = assay: Multidrug resistance reversal assay (MTT) with DOX, sensitive parental line; type: cell-based, human; settings: for Effect on DOX sensitivity in K562: compound at highest non-toxic concentration (Table 1)
# Procedure: (§1) Briefly, 5 × 10^4 Lucena 1 cells per well were seeded in 96-well plates containing RPMI-1640 medium in the presence of DOX alone or in combination with the tested compounds dissolved in ethanol or acetonitrile as appropriate. DOX was added to reach final concentrations of 0.05–431 μM. The compounds were assayed at the highest non-toxic concentration observed in both cell lines (cytotoxicity ≤ 20%, Cytotoxicity (%) = [1-(Optical density treatment-Optical density DMSO)/(Optical density control-Optical density DMSO)] x 100, determined by MTT proliferation assay (Joray et al., [2015]); maximum concentration tested 40 μg mL^−1). Following the primary screening, compounds 14 and 16 (dissolved in ethanol) were tested at serial dilutions. […] Subsequently, the supernatants were removed and replaced with 100 μL DMSO to solubilize the resulting purple formazan crystals produced from metabolically viable cells. Absorbance was measured with an iMark micro-plate reader (Bio-Rad, USA) at 595 nm.
# (§2) The same reversal assay was performed in K562 cells, in order to discard a decrease in the IC50 of DOX due to effects other than P-gp inhibition. The reversal fold (RF) values for the tested compounds, which indicate their capacity to reduce resistance to DOX, were calculated by dividing the IC50 of DOX alone by the IC50 of DOX in the presence of the tested compounds (Xu et al., [2014]).
# Lucena 1 cells [2] = assay: Multidrug resistance reversal assay (MTT) with DOX; type: cell-based, human; settings: for Effect on DOX toxicity in Lucena 1: compound at highest non-toxic concentration (Table 1)
# Procedure: as §1, §2
# Lucena 1 cells [3] = assay: Reversal assay (MTT) with VLB; type: cell-based, human
# Procedure: Subsequently, the supernatants were removed and replaced with 100 μL DMSO to solubilize the resulting purple formazan crystals produced from metabolically viable cells.
# The same reversal assay was performed in K562 cells, in order to discard a decrease in the IC50 of DOX due to effects other than P-gp inhibition.
# K562 cells [4] = assay: Reversal assay (MTT) with VLB, sensitive parental line; type: cell-based, human
# K562 cells [5] = assay: Doxorubicin intracellular accumulation assay (flow cytometry), K562; type: cell-based, human; settings: up to the maximum concentration evaluated
# Description: […]. […] Viability controls were included in all the experiments.
# P-gp [6] = system: P-gp; design: method as in Tamaki et al., 2008; settings: applied at 50 and 100 μM; ref Tamaki et al., 2008; cited from earlier work
# [7] = system: KB-C2 cells overexpressing P-gp; design: method as in Nabekura et al., 2008; settings: ref Nabekura et al., 2008; cited from earlier work
# P-gp [8] = assay: Surface expression of P-gp (FITC anti-human P-gp, flow cytometry), Lucena 1; type: cell-based; settings: 14 at 112 μM, 48 h
# Procedure: (§3) To determine the effect of 14 on P-gp surface expression, Lucena 1 or K562 cells at a density of 5 × 10^4 cells mL^−1 were incubated in the presence of 14, dissolved in ethanol at 112 μM (maximum non-cytotoxic concentration, in order to ensure the presence of the effect) or 1% ethanol (control) for 24 and 48 h. Then, cells were washed with cold PBS and labeled for 30 min at 4°C in the dark with FITC-conjugated mouse anti-human P-gp antibody, which binds to an external epitope of P-gp, according to the manufacturer's instructions. Finally, cells were washed and suspended with ice-cold PBS and fluorescence intensity was determined in 10,000 individual cells by FACScan flow cytometry. FITC fluorescence was measured at an excitation wavelength of 488 nm and emitted light was collected with a 530/30 nm bandpass filter.
# K562 cells [9] = assay: Rhodamine 123 efflux assay (flow cytometry), K562; type: cell-based, human; settings: 14 at 112 μM
# Procedure: Rho 123, a P-gp fluorescent substrate, is frequently employed as an indicator of P-gp activity and it was therefore used in an additional efflux study. […] Subsequently, cells were incubated with 500 ng mL^−1 of Rho 123 for 30 min. […] After washing twice with cold PBS, the amount of Rho 123 remaining in 10,000 individual cells after the efflux period was quantified by FACScan flow cytometry. Excitation was performed with a laser operating at 488 nm and the emitted fluorescence was collected through a 530/30 nm pass filter.
# P-gp [10] = assay: Surface expression of P-gp (FITC anti-human P-gp, flow cytometry), K562; type: cell-based; settings: 14 at 112 μM, 24 and 48 h
# Procedure: as §3
# P-gp [11] = biological target: T1, P-gp (Homo sapiens, UniProt P08183); assay: Rhodamine 123 efflux assay (flow cytometry); type: cell-based; design: Lucena 1 was chosen as a well-characterized resistant cell line in which P-gp overexpression is the exclusive mechanism of acquired resistance; endogenous in cells; host or cells: Lucena 1 (drug-selected, P-gp overexpressing) and parental K562 human CML cells; settings: Lucena 1; 14 at 112 μM; 30 min efflux
# P-gp [12] = biological target: T1, P-gp; assay: Doxorubicin efflux assay (flow cytometry); type: cell-based; design: Lucena 1 was chosen as a well-characterized resistant cell line in which P-gp overexpression is the exclusive mechanism of acquired resistance; endogenous in cells; host or cells: Lucena 1 (drug-selected, P-gp overexpressing) and parental K562 human CML cells; settings: Lucena 1
# Procedure: […]. […] After washing, cells were incubated for 30 min with 14. […] Cells were then washed with ice-cold PBS and the intracellular DOX-associated MFI of 50,000 individual cells was determined by flow cytometry as previously described.
# P-gp [13] = biological target: T1, P-gp; settings: Lucena 1; for % of inhibition related to verapamil (DOX accumulation): 112 μM
# P-gp [14] = biological target: T1, P-gp; assay: P-gp ATPase activity ([…] ATPase assay kit, Sf9 membranes); type: biochemical; design: host or cells: Spodoptera frugiperda Sf9 cells (membrane preparation); settings: for Maximum stimulation of P-gp-ATPase activity: activation assay, at 66.7 μM, relative to maximum activation by verapamil
# Procedure: The ATPase reaction was subsequently stopped and the inorganic phosphate (Pi) produced was measured colorimetrically at 630 nm.
# All experiments were performed in the absence or presence of 1.2 mM of sodium orthovanadate, an ABC transporter-related ATPase inhibitor, in order to measure the vanadate-sensitive portion of the total ATPase activity. […] Membranes from Sf9 cells expressing defective P-gp were used as controls.
# K562 cells [15] = assay: Doxorubicin efflux assay (flow cytometry), K562; type: cell-based, human; settings: 14 at 112 μM, verapamil 30 μM
# Procedure: Cells were then washed with ice-cold PBS and the intracellular DOX-associated MFI of 50,000 individual cells was determined by flow cytometry as previously described.
# [16] = 14 at 112 μM, verapamil as reference
# T1 sequence (P08183 whole entry): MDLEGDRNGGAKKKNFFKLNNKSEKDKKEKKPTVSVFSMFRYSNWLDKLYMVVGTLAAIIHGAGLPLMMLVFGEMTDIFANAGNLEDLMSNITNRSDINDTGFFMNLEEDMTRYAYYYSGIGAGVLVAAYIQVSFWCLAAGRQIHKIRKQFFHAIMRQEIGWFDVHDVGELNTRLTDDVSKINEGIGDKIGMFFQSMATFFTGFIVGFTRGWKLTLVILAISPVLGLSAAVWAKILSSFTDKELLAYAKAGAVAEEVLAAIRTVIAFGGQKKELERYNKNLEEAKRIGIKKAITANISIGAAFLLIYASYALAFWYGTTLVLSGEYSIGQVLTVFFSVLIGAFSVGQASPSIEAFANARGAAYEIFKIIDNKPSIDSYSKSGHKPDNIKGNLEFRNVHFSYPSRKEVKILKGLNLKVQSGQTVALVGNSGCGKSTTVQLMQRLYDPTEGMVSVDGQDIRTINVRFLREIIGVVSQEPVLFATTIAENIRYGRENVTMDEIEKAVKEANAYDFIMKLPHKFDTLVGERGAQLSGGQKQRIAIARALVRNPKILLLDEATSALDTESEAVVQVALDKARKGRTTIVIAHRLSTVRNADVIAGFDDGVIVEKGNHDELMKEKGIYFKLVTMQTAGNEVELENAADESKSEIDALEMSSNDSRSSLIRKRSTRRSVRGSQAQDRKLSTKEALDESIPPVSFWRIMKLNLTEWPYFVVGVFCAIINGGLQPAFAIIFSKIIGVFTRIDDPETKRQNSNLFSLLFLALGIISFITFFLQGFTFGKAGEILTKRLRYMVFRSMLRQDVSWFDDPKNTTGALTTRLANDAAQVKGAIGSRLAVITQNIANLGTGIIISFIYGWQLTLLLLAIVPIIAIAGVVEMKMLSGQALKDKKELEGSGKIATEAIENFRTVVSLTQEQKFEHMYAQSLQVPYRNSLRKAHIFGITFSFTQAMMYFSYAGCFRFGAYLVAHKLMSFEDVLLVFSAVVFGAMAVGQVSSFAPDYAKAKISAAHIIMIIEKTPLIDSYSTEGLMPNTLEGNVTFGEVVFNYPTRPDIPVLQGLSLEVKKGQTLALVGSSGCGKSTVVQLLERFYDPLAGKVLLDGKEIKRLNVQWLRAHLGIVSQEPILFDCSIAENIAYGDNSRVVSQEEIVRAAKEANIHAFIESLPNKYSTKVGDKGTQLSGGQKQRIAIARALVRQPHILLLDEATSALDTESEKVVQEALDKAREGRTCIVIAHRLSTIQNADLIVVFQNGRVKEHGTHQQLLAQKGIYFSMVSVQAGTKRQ
# T1 sequence (P08183 whole entry): as above
compound,measurement,setting,value
"O=C(/C=C/c1ccccc1)c1ccc(O)cc1O [Compound 6, 2′,4′-dihydroxychalcone]",Effect on DOX sensitivity in K562,K562 cells [1],caused a decrease in DOX IC50
"O=C1C[C@@H](c2ccc(O)cc2)Oc2cc(O)cc(O)c21 [Compound 8, naringenin]",Effect on DOX toxicity in Lucena 1,Lucena 1 cells [2],did not cause any effect in DOX toxicity
"CC1(C)C=Cc2c(cc3c(c2O)C(=O)CC(c2ccc(O)cc2O)O3)O1 (stereo not drawn) [Compound 9, dalenin]",Effect on DOX sensitivity in K562,K562 cells [1],caused a decrease in DOX IC50
"O=c1cc(-c2ccc(O)cc2)oc2cc(O)cc(O)c12 [Compound 10, apigenin]",Effect on DOX toxicity in Lucena 1,Lucena 1 cells [2],did not cause any effect in DOX toxicity
"O=c1c(O)c(-c2ccc(O)c(O)c2)oc2cc(O)cc(O)c12 [Compound 11, quercetin]",Effect on DOX toxicity in Lucena 1,Lucena 1 cells [2],decreased DOX sensitivity
"COc1cccc2c1C(=O)c1c(O)c3c(c(O)c1C2=O)C[C@@](O)(C(=O)CO)C[C@@H]3O[C@H]1C[C@H](N)[C@H](O)[C@H](C)O1 [DOX, Doxorubicin hydrochloride, reference compound]",IC50,"Lucena 1 cells [2]; Homo sapiens, Lucena 1, MTT 48 h, 95% confidence limits in brackets, read-out: IC50 of DOX alone",40.8 µM
same,Resistance of Lucena 1 to DOX relative to K562,Lucena 1 cells [2]; ratio of DOX IC50 values,35 fold
same,IC50,"K562 cells [1]; Homo sapiens, K562, MTT 48 h, 95% confidence limits in brackets, read-out: IC50 of DOX alone",1160 nM
"CC[C@]1(O)C[C@@H]2CN(CCc3c([nH]c4ccccc34)[C@@](C(=O)OC)(c3cc4c(cc3OC)N(C)[C@H]3[C@@](O)(C(=O)OC)[C@H](OC(C)=O)[C@]5(CC)C=CCN6CC[C@]43[C@@H]65)C2)C1 [VLB, vinblastine sulfate, reference compound]",IC50,"Lucena 1 cells [3]; Homo sapiens, VLB alone",2490 nM
same,IC50,"K562 cells [4]; Homo sapiens, VLB alone",240 nM
"COc1ccc(CCN(C)CCCC(C#N)(c2ccc(OC)c(OC)c2)C(C)C)cc1OC (stereo not drawn) [Verapamil, Verapamil hydrochloride, reference compound]",DOX accumulation in K562,K562 cells [5],No such increase in MFI
(+)-pinoresinol [14 (+)-pinoresinol],Intracellular accumulation of calcein-AM,P-gp [6],increased the intracellular accumulation of calcein-AM
(-)-sesamin,Concentration from which accumulation of daunorubicin increased,[7],50 µM
(±)-pinoresinol [Compound 14],P-gp expression at the membrane surface vs control,P-gp [8],less P-gp at the Lucena 1 cell membrane; also recorded: lower
same,Rho 123-associated MFI in K562,K562 cells [9],did not induce any increase
same,Reversal fold (RF) to VLB,Lucena 1 cells [3]; [16],60 and 60.20
same,Minimum effective concentration (MEC) in the reversal assay (potentiation of DOX toxicity from),"Lucena 1 cells [2]; Lucena 1, DOX",7 µM
same,RF Lucena 1,"Lucena 1 cells [2]; compound at 28 μM (serial dilution), DOX",3.4
same,P-gp presence in the outer membrane,P-gp [10],No suppression of P-gp presence
same,Enhancement of intracellular Rho 123 intensity in efflux assay,P-gp [11],1.5 fold
same,DOX accumulation in K562,K562 cells [5],No such increase in MFI
same,Increase in DOX-associated MFI (retention) vs control in efflux assay,"P-gp [12]; 14 at 112 μM, 30 min in DOX-free medium",1.8 fold
same,Minimum effective concentration (MEC) in the DOX efflux assay,P-gp [12]; 30 min efflux,56 µM
same,Reversal fold (RF) to VLB,K562 cells [4]; [16],9 and 9.63
same,Effect on DOX sensitivity in K562,K562 cells [1],did not increase DOX sensitivity
same,% of inhibition related to verapamil (DOX accumulation),P-gp [13]; 0 h pre-incubation,60%
same,% of inhibition related to verapamil (DOX accumulation),P-gp [13]; 0.5 h pre-incubation,73%
same,% of inhibition related to verapamil (DOX accumulation),"P-gp [13]; 1 h pre-incubation, verapamil 30 μM = maximum inhibition",79%
same,% of inhibition related to verapamil (DOX accumulation),P-gp [13]; 48 h pre-incubation,55%
same,% inhibition with respect to verapamil (DOX accumulation),P-gp [13]; 14 at 56 μM (MEC),80%
same,Time course of DOX accumulation,"P-gp [13]; 14 at 112 μM, at 20 min, compared with MFI in K562",fully restored the presence of DOX within Lucena 1 cells
same,Minimum effective concentration (MEC) in the DOX accumulation assay,"P-gp [13]; 1 h pre-incubation, 5 μM DOX 1 h",56 µM
same,Type of P-gp inhibition (Lineweaver-Burk double reciprocal plot of DOX retention),"P-gp [13]; 1 h with 14, then 1 h DOX",competitive inhibitor
same,Increase in DOX-associated MFI vs ethanol control,"P-gp [13]; 48 h pre-incubation, 14 at 112 μM, verapamil 30 μM, 5 μM DOX 1 h",1.4 fold
same,Increase in DOX accumulation (MFI) vs ethanol control,"P-gp [13]; no pre-incubation (0 h), 14 at 112 μM, verapamil 30 μM, 5 μM DOX 1 h",1.3 fold
same,Maximum stimulation of P-gp-ATPase activity,P-gp [14],29.49 ± 4.55%
same,Maximum stimulation of P-gp-ATPase activity,P-gp [14]; listed as pinoresinol,29%
same,Effect on ATPase activity of control membranes,"P-gp [14]; membranes from Sf9 cells expressing defective P-gp, up to 600 μM",no effect
same,Effect on DOX efflux in K562,K562 cells [15],Neither 14 nor verapamil showed any significant effect
